The source of these data is ChEMBL document CHEMBL1777748 (Bioorg Med Chem Lett, 2011).

Calls of active or inactive are those of the source. The calls are words filed in the database; no cut-off is given here.

The target in data set [1] is T1, Prostaglandin D2 receptor 2 (Homo sapiens, UniProt Q9Y5Y4).
T1 sequence (Q9Y5Y4 whole entry): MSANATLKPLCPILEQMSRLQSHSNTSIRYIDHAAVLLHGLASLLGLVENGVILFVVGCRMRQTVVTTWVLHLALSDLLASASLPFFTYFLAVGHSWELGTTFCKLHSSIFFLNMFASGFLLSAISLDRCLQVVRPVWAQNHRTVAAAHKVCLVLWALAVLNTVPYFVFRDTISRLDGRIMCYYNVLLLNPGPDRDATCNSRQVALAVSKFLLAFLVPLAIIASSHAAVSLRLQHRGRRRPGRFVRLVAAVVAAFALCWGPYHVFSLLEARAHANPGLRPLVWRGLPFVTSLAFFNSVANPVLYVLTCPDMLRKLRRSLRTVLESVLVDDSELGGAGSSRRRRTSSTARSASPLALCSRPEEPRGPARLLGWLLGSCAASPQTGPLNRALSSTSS
As to the kind of experiment: Displacement of [3H]-PGD2 from CRTh2 receptor by scintillation proximity assay. In general terms: In a radioligand displacement assay an active substance lowers the binding of a labelled ligand.

Data set [2] can be described thus: Intrinsic clearance in rat hepatocytes assessed per 1 x 10^6 cells.
Data set [3] in a line: Intrinsic clearance in human liver microsomes. (Liver microsomes are a subcellular fraction often used to study metabolism.)
The target of data set [4] is T1, Prostaglandin D2 receptor 2. Description: Antagonist activity at human CRTh2 receptor expressed in CHO cells assessed as inhibition of PGD2-induced calcium flux in presence of 1% bovine serum albumin. Type of data set: functional, cell-based.
Data set [5] in a line: Half life in iv dosed rat. To be noted: in vivo.
Data set [6] is described as follows: Oral bioavailability in rat. To be noted: in vivo. Format: ADME, organism-based.
The next data set concerns the target T2, Cytochrome P450 1A2 (Homo sapiens, UniProt P05177).
T2 sequence (P05177 whole entry): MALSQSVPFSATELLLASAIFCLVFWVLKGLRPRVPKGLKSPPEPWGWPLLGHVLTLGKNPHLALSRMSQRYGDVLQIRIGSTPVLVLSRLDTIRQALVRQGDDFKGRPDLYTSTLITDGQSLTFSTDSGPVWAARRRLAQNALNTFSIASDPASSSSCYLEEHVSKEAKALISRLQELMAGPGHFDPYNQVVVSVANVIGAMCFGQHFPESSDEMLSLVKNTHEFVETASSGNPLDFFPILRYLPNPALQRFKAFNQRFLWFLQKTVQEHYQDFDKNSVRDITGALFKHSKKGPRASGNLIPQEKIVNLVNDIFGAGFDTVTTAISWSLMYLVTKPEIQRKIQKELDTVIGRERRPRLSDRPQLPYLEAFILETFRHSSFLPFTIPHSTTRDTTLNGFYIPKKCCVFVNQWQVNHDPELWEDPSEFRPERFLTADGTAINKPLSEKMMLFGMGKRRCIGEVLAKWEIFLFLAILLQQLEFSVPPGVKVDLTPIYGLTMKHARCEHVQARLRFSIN
As to the kind of experiment: Inhibition of CYP1A2. Type of data set: ADME.

Another data set concerns the target Cytochrome P450 3A4 (Homo sapiens, UniProt P08684). Description: Inhibition of CYP3A4. Format: ADME.
For the next data set, the target named is Cytochrome P450 2C9 (Homo sapiens, UniProt P11712). Description: Inhibition of CYP2C9. Format: ADME.
Chain of Cytochrome P450 2C9 (P11712 whole entry): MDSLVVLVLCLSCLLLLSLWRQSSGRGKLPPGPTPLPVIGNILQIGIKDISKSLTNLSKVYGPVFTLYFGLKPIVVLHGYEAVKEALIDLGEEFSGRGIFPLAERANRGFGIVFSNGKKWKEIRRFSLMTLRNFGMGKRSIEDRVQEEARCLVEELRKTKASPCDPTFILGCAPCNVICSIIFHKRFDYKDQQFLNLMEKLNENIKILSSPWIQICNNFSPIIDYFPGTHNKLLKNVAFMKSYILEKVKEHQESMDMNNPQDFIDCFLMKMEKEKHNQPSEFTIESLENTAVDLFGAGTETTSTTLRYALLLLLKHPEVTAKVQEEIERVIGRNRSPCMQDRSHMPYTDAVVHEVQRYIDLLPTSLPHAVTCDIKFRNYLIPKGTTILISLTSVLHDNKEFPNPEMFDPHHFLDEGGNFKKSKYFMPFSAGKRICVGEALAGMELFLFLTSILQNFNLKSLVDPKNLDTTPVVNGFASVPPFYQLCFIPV
The target of a further data set is Cytochrome P450 2C19 (Homo sapiens, UniProt P33261). As to the kind of experiment: Inhibition of CYP2C19. Format: ADME.
Chain of Cytochrome P450 2C19 (P33261 whole entry): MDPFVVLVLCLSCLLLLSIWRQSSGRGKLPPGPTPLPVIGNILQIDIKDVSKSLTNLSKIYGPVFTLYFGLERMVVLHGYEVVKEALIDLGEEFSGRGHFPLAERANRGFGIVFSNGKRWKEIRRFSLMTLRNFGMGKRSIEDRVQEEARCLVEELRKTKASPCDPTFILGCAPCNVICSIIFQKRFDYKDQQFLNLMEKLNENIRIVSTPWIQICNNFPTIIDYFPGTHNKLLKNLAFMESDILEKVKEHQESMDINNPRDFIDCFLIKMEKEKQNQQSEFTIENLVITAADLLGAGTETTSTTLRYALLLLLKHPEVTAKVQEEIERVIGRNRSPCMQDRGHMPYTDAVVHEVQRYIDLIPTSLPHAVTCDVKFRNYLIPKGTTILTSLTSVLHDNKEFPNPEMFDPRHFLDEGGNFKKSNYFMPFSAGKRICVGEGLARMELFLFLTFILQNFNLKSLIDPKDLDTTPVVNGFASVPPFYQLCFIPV
In the next data set the target is Cytochrome P450 2D6 (Homo sapiens, UniProt P10635). Description: Inhibition of CYP2D6. Type of data set: ADME.
Chain of Cytochrome P450 2D6 (P10635 whole entry): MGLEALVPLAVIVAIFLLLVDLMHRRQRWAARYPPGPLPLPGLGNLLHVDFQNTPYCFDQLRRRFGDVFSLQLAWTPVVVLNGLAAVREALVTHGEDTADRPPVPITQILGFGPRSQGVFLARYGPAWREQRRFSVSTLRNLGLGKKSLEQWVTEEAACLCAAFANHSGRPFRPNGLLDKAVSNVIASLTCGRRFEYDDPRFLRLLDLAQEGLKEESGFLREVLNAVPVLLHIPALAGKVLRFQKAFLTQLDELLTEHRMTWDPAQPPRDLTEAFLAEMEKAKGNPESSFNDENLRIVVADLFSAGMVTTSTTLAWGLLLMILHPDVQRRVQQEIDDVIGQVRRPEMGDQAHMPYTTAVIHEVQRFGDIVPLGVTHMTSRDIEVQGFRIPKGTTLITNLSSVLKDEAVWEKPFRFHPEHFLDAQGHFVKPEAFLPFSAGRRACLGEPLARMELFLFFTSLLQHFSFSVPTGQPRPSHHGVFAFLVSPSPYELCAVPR
The target of data set [7] is T3, Prostaglandin D2 receptor 2 (Mus musculus, UniProt Q9Z2J6).
T3 sequence (Q9Z2J6 whole entry): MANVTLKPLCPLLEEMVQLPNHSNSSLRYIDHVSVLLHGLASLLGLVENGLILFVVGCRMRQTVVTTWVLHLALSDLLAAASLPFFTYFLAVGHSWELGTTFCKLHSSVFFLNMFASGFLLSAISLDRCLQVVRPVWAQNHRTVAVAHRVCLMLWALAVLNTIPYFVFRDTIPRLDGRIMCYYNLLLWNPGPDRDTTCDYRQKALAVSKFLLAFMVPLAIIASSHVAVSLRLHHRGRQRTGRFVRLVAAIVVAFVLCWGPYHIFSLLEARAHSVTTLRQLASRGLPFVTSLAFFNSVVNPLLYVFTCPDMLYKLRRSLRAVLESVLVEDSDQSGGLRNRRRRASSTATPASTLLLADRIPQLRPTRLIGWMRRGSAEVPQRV
Description: Binding affinity to mouse CRTh2 receptor.

In data set [8] the target is T4, Prostaglandin D2 receptor 2 (Rattus norvegicus, UniProt Q6XKD3).
T4 sequence (Q6XKD3 whole entry): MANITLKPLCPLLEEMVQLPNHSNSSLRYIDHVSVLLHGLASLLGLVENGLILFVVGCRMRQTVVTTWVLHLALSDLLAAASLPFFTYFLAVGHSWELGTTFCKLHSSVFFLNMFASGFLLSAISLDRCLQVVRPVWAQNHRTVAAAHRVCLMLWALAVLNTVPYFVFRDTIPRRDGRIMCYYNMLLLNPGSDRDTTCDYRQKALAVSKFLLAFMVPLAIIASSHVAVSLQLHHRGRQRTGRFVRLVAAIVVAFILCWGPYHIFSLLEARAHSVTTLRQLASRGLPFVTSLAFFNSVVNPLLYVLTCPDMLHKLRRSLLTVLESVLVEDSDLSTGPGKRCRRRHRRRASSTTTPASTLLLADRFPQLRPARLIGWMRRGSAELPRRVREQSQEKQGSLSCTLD
As to the kind of experiment: Binding affinity to rat CRTh2 receptor.

The target of data set [9] is T5, Chemoattractant receptor-homologous molecule expressed on Th2 cells (Cavia porcellus, UniProt Q56D28).
T5 sequence (Q56D28 whole entry): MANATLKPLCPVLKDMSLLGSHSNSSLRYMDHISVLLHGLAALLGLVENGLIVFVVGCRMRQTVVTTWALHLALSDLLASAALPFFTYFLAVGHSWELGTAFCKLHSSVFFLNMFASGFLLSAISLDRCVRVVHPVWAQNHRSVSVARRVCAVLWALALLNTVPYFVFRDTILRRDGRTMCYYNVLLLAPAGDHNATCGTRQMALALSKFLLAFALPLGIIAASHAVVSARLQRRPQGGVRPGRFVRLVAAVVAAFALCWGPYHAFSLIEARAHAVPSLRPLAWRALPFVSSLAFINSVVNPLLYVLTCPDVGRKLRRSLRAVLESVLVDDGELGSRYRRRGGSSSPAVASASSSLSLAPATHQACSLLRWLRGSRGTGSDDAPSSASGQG
Description: Binding affinity to guinea pig CRTh2 receptor.

Data set [10] can be described thus: Oral bioavailability in dog. Type of data set: ADME, organism-based, Canis lupus familiaris. To be noted: in vivo.
For a further data set, the species on record is Mus musculus. As to the kind of experiment: Protection against 11 days tobacco smoke-induced mucosal damage in mouse lung assessed as inhibition of inflammatory cells accumulation. Format: functional, organism-based.
Data set [11] in a line: Fraction unbound in human plasma. Type of data set: ADME, cell-free.
A short description of data set [12]: Fraction unbound in rat plasma. Format: ADME, cell-free.
A short description of data set [13]: Fraction unbound in dog plasma. Format: ADME, cell-free, Canis lupus familiaris.
A short description of data set [14]: Fraction unbound in cynomolgus monkey plasma. Format: ADME, cell-free, Macaca fascicularis.
Data set [15] is described as follows: Aqueous solubility of the compound in buffer at pH 7.4. Type of data set: physicochemical.

Chain of Cytochrome P450 3A4 (P08684 whole entry): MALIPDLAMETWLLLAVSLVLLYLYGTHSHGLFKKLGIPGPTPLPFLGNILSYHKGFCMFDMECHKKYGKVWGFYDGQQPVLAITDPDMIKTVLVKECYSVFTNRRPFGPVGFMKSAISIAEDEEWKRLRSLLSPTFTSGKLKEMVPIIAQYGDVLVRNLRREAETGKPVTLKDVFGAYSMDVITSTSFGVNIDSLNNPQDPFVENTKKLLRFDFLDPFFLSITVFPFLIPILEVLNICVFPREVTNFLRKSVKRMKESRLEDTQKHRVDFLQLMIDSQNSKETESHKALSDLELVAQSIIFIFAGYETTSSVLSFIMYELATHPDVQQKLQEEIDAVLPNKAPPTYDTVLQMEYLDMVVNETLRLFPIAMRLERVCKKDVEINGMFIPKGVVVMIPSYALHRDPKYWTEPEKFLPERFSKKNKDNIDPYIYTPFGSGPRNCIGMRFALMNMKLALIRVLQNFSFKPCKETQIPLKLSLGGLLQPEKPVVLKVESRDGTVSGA

What is called IC50 is the concentration at which inhibition is half-maximal. One may read the hepatocyte CLint as the capacity of the preparation to metabolise the compound, expressed as a volume cleared per time. As a reminder, the microsomal CLint is the rate of metabolic loss divided by the concentration. For orientation: half-life means the time in which the quantity being followed falls by half. As usually defined, the bioavailability is dose-corrected exposure relative to a reference, in per cent. `N#Cc1cccc(-c2cc(Cl)ccc2OCC(=O)O)c1`: the IC50 is 1.7 nM in data set [1] and 10 nM in data set [4]. For the same compound, the hepatocyte CLint in [2] was found to be 5 µL/min/1e6 cells. The same compound returned a microsomal CLint in data set [3] (microsomes) below 3 µL/min/mg. This compound had a half-life in data set [5] of 2.3 h. In addition, the bioavailability in [6] came out at 96%.

One may read the fraction unbound as the share of the substance not bound to proteins or other matrix. `CCS(=O)(=O)c1ccc(-c2cc(C(F)(F)F)ccc2OCC(=O)O)c(C)c1`: the half-maximal inhibitory concentration (IC50) in [1] was 0.9 nM; in data set [4], 29 nM; against Cytochrome P450 1A2, above 50000 nM; on Cytochrome P450 3A4 it was above 50000 nM; at Cytochrome P450 2C9, above 50000 nM; against Cytochrome P450 2C19, above 50000 nM. For the same compound, the IC50 was above 50000 nM at Cytochrome P450 2D6, 1 nM in data set [7], 1.3 nM in data set [8] and 63 nM in [9]. The bioavailability stood at 42% in data set [6] and 46% in data set [10]. In the data set filed under Mus musculus, the result was Active. Also, the fraction unbound in data set [11] stood at 0.046; in [12], 0.056; in data set [13], 0.03; in data set [14] it was 0.026.

The solubility is the concentration that dissolves in the medium under given conditions. Take `O=C(O)COc1ccc(C(F)(F)F)cc1-c1ccccc1`: the IC50 in data set [1] is 45 nM. In data set [2], this compound showed a hepatocyte CLint of 3 µL/min/1e6 cells. The compound further showed an intrinsic clearance (microsomal CLint) in data set [3] (liver microsomes) below 3 µL/min/mg. The solubility in [15] is above 80 µM.
